# Results published in patent US4948873A, “Gonadoliberine analogues of high activity” (Richter Gedeon Vegyeszeti Gyar, priority 1985, dated 1990).
# Tests used:
# Format in all cases: in vivo
# LH hormone = assay: LH concentration in the serum of male mice after subcutaneous administration (radioimmunoassay); conditions: dose 200 ng/mouse; for LH serum level in mice after the treatments, 2 hours: 2 hours after treatment; for LH serum level in mice after the treatments, 4 hours: 4 hours after treatment; for LH serum level in mice after the treatments, 6 hours: 6 hours after treatment
# Protocol: The common feature of the superactive GnRH analogues is that they liberate many times the amount of LH hormone than the natural GnRH could do and the duration of their effect is also much longer. In order to illustrate the above statements the activity for liberating LH hormone of the natural GnRH analogues and some superactive and some representatives of the GnRH analogues of formula I according to the invention are shown in FIG. 1. The experiments were carried out on male mice, the active ingredient was administered subcutaneously and the LH content of the serum of the blood of the animals was measured by radioimmunoassay.
# Table I summarizes the biological data of a preferable representative of the GnRH analogues of formula I, Asu^6 -desGly^10 -GnRH-ethylamide.
# [1] = system: sexually mature female rats; assay: Inhibition of ovulation in rats; conditions: 0.5 μg/rat for 17 days
# Protocol: (c) Inhibition of ovulation in rats
# The compound was administered for 17 days in a dose of 0.5 μg/rats to sexually mature female rats. The inhibition of ovulation was 100%. The experimental method is described in B.B.R.C. 118, 351 […] Kovacs et al.
# [2] = system: sexually matured female rabbits; assay: Induction of ovulation in angora rabbit; conditions: single dose of 1.5 μg/rabbit, thereafter artificially inseminated
# Protocol: (d) Induction of ovulation in angora rabbit
# The sexually matured female rabbits were administered with a single does of 1.5 μg/rabbit, thereafter artificially inseminated. 90% of the animals became pregnant.
# rats [3] = assay: Toxicity in rats, single dose; conditions: single dose of 10 mg/kg
# From the text: (§1) The toxicity data of Asu^6, desGly^10 -GnRH-ethylamide are as follows: […]
# rats [4] = assay: Toxicity in rats, administration for 17 days; conditions: 10 μg/rat for 17 days
# From the text: as §1
Substance,"LH serum level in mice after the treatments, 2 hours (LH hormone) [ng/mL]","LH serum level in mice after the treatments, 4 hours (LH hormone) [ng/mL]","LH serum level in mice after the treatments, 6 hours (LH hormone) [ng/mL]",inhibition of ovulation [1] [%],animals that became pregnant [2] [%],toxicity (rats [3]),toxicity (rats [4])
GnRh: native gonadoliberine peptide hormone of hypothalamic origin [reference compound],85.2,81.4,87.0,–,–,–,–
"Glp-His-Trp-Ser-Tyr-Asu-Leu-Arg-Pro-ethylamide [Asu^6,desGly^10 -GnRH-ethylamide]",958.4,702.3,216.2,100,90,did not prove to be toxic,atoxic
